Patent US8404266B2, “Method for stabilization of S-nitrosoglutathione and composition prepared by the same” (Pharmagenix AG, priority 2008, dated 2013)

Assay: GSNO decomposition at different pH values, monitored spectrophotometrically at 540 nm (FIG. 3)
Format: physicochemical
Excerpt: The GSNO is a brown colored compound having a characteristic absorption spectrum. One of its two characteristic peaks is in the UV range, while the maximum of the other is around 540 nm. During decomposition the absorption spectrum of GSNO goes through a change. The change in the height of the peak at 540 nm is linearly proportional with the concentration of GSNO. Wavelengths at far IR range can be used as background absorption, since no change occurs in them during the decomposition process of GSNO. These features allow monitoring the concentration of GSNO spectrophotometrically. […] On the X-axis the time (given in days) and on the Y-axis absorbency values are given. Symbols Indicate the Following pH Values: • *: pH=0.3; • ♦: pH=4.26; • □: pH=7.4; • ▪: pH=8.6; • ◯: pH=12.6. The decomposition of GSNO was monitored spectrophotometrically, since the absorption spectrum of GSNO undergoes changes and the size change of the peak at 540 nm is linearly proportional with the concentration of GSNO. Wavelengths at far IR range were used as background absorption, since no change occurs in them during the decomposition of GSNO.

- GSNO metabolism (decomposition) (more alkaline conditions, curve of pH 12): gets accelerated
- stability (pH about 8.6, compared with conventionally applied pH 4.26): very good stability
- pH range of plateau-like maximum of stability (pH range): 7.5 to 10
- metabolic rate of GSNO (under alkaline conditions): significantly be decreased
SMILES: N[C@@H](CCC(=O)N[C@@H](CSN=O)C(=O)NCC(=O)O)C(=O)O [GSNO, S-nitrosoglutathione]
